# Results as given in patent US20260191192A1, “ANTIMICROBIAL COMPOSITIONS COMPRISING PELARGONIC ACID” (LANXESS Corporation, priority 2023, published 2026).
# Tests used:
# [1] = system: mixed bacterial inoculum (Table 6); assay: Challenge test (preservative efficacy), mixed bacterial inoculum, full pool (Table 6); type: cell-based
# Description: (§1) The preservative activity in representative rinse-off and leave-on formulations was evaluated using a modification of the Personal Care Products Council (PCPC—formerly the Cosmetic, Toiletry and Fragrance Association) protocol (Machtiger, et al. 2001. Determination of the Efficacy of Preservation of Non-Eye Area Water Miscible Cosmetic and Toiletry Formulations: Collaborative Study. J of AOAC International. 84:1, 101-109).
# (§2) This evaluation was conducted using a four week, two or three-cycle (i.e., two-cycle for personal care and three-cycle for home care applications) microbial preservative efficacy test (i.e., challenge test) at 25° C. to determine the preservative efficacy of each treatment. Phenoxyethanol, benzyl alcohol and pelargonic acid were tested alone and in various combinations. The pelargonic acid used in the testing was purchased from Sigma-Aldrich. Combinations of phenoxyethanol or benzyl alcohol with benchmark multifunctional booster compounds were also tested for comparison. The preservative and booster ingredients were dosed and mixed thoroughly at room temperature into various formulations, specifically different personal care formulations including a lotion (leave-on, Table 1), a micellar water (rinse-off, Table 2), and a body wash formulation (rinse-off, Table 3) and different home care formulations including a manual dishwashing formulation (Table 4) and a liquid laundry detergent formulation (Table 5). […] Carbomers are a commonly used synthetic rheological modifier in personal care products. The formulation below was made by heating the aqueous (A) and oil (B) phases separately to 75-80° C. The oil phase was then poured into the aqueous phase and mixed by a homogenizer at approximately 45° C. The formed oil-in-water emulsion was cooled to room temperature. Triethanolamine and/or diluted sodium hydroxide was used to adjust the final pH to 6.3 or 6.5 (as indicated in the examples below).
# (§3) After dosing, the samples were divided into two separate five gram aliquots. One aliquot was inoculated with 50 μl of a diluted bacterial pool, and the second aliquot was inoculated with 50 μl of a diluted fungal pool as described below. Unpreserved product samples were included as a growth control.
# (§4) For personal care products, a mixed bacterial inoculum was prepared using 24-hour cultures of the test bacteria (Table 6) grown in trypticase soy broth (TSB). For home care products, a mixed bacterial inoculum was prepared using 24-hour cultures of the test bacteria either from Table 6 (full pool) or Table 7 (simplified pool) grown in trypticase soy broth (TSB). Details are disclosed in the home care examples below. Equal volumes of the bacterial test strains were combined and diluted one to ten in phosphate buffer to obtain an inoculum of approximately 5×10^7 to 5×10^8 colony forming units per ml (cfu/ml). The test samples were inoculated with 1% of the mixed bacterial inoculum. For both personal care and home care products, a mixed fungal inoculum was prepared using cell suspensions of the yeast Candida albicans ATCC #10231 and the mold Aspergillus brasiliensis ATCC #16404 in phosphate buffer. Equal volumes of the fungal test strains were combined and diluted one to ten with phosphate buffer to obtain an inoculum of approximately 5×10^6 to 5×10^7 cfu/ml. The test samples were inoculated with 1% of the mixed fungal inoculum.
# (§5) For personal care products, the samples were subjected to two microbial challenges at time zero and inoculated a second time after seven days. For home care products, the samples were subjected to three microbial challenges at time zero and inoculated a second and third time after seven and fourteen days, respectively. The number of microorganisms added to each sample was determined by a standard Most Probable Number (MPN) determination in Trypticase Soy Broth (TSB) for bacteria and Potato Dextrose Broth (PDB) for fungi. Samples were incubated at 25° C. for the test duration of four weeks.
# [2] = system: mixed bacterial inoculum for home care (Table 7); assay: Challenge test (preservative efficacy), mixed bacterial inoculum, simplified pool (Table 7); type: cell-based, Pseudomonas aeruginosa, Staphylococcus aureus
# Description: as §1, §2, §3, §4, §5
# [3] = system: mixed fungal inoculum: Candida albicans ATCC #10231 and Aspergillus brasiliensis ATCC #16404; assay: Challenge test (preservative efficacy), mixed fungal inoculum; type: cell-based
# Description: as §1, §2, §3, §4, §5
# [4] = system: bacteria (Table 6 pool) and fungi; assay: Challenge test, overall result (full bacteria pool and fungi); type: cell-based
# Description: as §1, §2, §3, §4, §5
# [5] = system: bacteria (Table 7 pool) and fungi; assay: Challenge test, overall result (simplified bacteria pool and fungi); type: cell-based
# Description: as §1, §2, §3, §4, §5
# [6] = ZenBio Cupric Ion Chelating (CIC) Assay; type: physicochemical; conditions: calculated from a EDTA calibration curve, Pelargonic Acid at 775 μM
# Description: The chelation property of the pelargonic acid was measured by using the ZenBio Cupric Ion Chelating (CIC) Assay (Cat #AOX-16). The assay measured the capacity of the pelargonic acid to chelate free cupric ions in solution, thereby inhibiting Cu(II) binding to pyrocatechol violet (PV) for generating a highly colored complex. The absorbance of the Cupric-PV complex was measured at a wavelength of 632 nm. The cupric ion chelating activity was determined as the percent of total PV over the Cu(II) binding. Ethylenediaminetetraacetic acid (EDTA), a well-known chelating agent, was used as a positive control. A series of EDTA with 7 different concentrations from 0 to 1000 μM were prepared and their corresponding absorbance measured and used as the calibration curve (Cupric ion chelating (%) vs. EDTA concentration). Percent cupric ion chelating was determined following the following calculations and Equation 1. The background absorbance value by averaging the absorbance values of the three background wells (no CuSO4 or sample). The average background absorbance was then subtracted from all the sample absorbance values. The maximal absorbance value (Absmax) was determined by averaging the absorbance values of the three wells containing CuSO4, PV and assay buffer. Abstest in Equation 1 is the absorbance of the test sample.
# The calibration curve (Cupric ion chelating (%) vs. EDTA concentration) was fit by using a polynomial curve after log 10 transforming the concentrations (R2>0.98).
# [7] = lotion with carbomer, pH 6.3, Example 1A, dosed 0.4 wt %
# [8] = lotion with carbomer, pH 6.5, Example 1I, dosed 0.4 wt %
# [9] = lotion with carbomer, pH 6.5, Example 1I, total dosing 0.8 wt %
# [10] = liquid laundry detergent, pH 7.5, Example 1G, dosed 0.5 wt %
# [11] = liquid laundry detergent, pH 7.5, Example 1G, dosed 1.0 wt %
# [12] = liquid laundry detergent, pH 7.5, Example 1H, dosed 0.5 wt %
# [13] = liquid laundry detergent, pH 7.5, Example 1H, dosed 1.0 wt %
# [14] = manual dishwashing formulation, pH 5.5, Example 1F, dosed 0.5 wt %
# [15] = manual dishwashing formulation, pH 5.5, Example 1F, dosed 1.0 wt %
# [16] = micellar water, pH 6.0, Example 1B, dosed 0.3 wt %
# [17] = micellar water, pH 6.0, Example 1C, dosed 0.3 wt %
compound,measurement,setting,value
"OCCOc1ccccc1 [Phenoxyethanol (POE), 2-phenoxyethan-1-ol]",Bacteria growth rating Result,"[1]; liquid laundry detergent, pH 7.5, full bacteria pool, Example 1H, dosed 0.5 wt %",Fail (growth rating score caused by bacteria of 2 or more at days 21-28 of the testing period)
same,Bacteria growth rating Result,"[1]; liquid laundry detergent, pH 7.5, full bacteria pool, Example 1H, dosed 1.0 wt %",Pass (growth rating score caused by bacteria of 1 or less at days 21-28 of the testing period)
same,Bacteria growth rating Result,[1]; [7],Fail (growth rating score caused by bacteria of 2 or more at days 21-28 of the testing period)
same,Bacteria growth rating Result,"[1]; lotion with carbomer, pH 6.3, Example 1D, dosed 0.4 wt %",Fail (growth rating score caused by bacteria of 2 or more at days 21-28 of the testing period)
same,Bacteria growth rating Result,"[1]; lotion with carbomer, pH 6.3, Example 1D, dosed 0.8 wt %",Pass (growth rating score caused by bacteria of 1 or less at days 21-28 of the testing period)
same,Bacteria growth rating Result,[1]; [8],Fail (growth rating score caused by bacteria of 2 or more at days 21-28 of the testing period)
same,Bacteria growth rating Result,[1]; [9],Pass (growth rating score caused by bacteria of 1 or less at days 21-28 of the testing period)
same,Bacteria growth rating Result,"[1]; micellar water, pH 6.0, bacteria inoculation ~10^7 cfu/ml, Example 1B, dosed 0.3 wt %",Pass (growth rating score caused by bacteria of 1 or less at days 21-28 of the testing period)
same,Bacteria growth rating Result,"[1]; micellar water, pH 6.0, bacteria inoculation ~10^8 cfu/ml, Example 1C, dosed 0.3 wt %",Fail (growth rating score caused by bacteria of 2 or more at days 21-28 of the testing period)
same,Bacteria growth rating Result,"[2]; liquid laundry detergent, pH 7.5, simplified bacteria pool, Example 1G, dosed 0.5 wt %",Pass (growth rating score caused by bacteria of 1 or less at days 21-28 of the testing period)
same,Bacteria growth rating Result,"[2]; liquid laundry detergent, pH 7.5, simplified bacteria pool, Example 1G, dosed 1.0 wt %",Pass (growth rating score caused by bacteria of 1 or less at days 21-28 of the testing period)
same,Bacteria growth rating Result,"[2]; manual dishwashing formulation, pH 5.5, simplified bacteria pool, Example 1F, dosed 0.5 wt %",Fail (growth rating score caused by bacteria of 2 or more at days 21-28 of the testing period)
same,Bacteria growth rating Result,"[2]; manual dishwashing formulation, pH 5.5, simplified bacteria pool, Example 1F, dosed 1.0 wt %",Fail (growth rating score caused by bacteria of 2 or more at days 21-28 of the testing period)
same,Fungi growth rating Result,[3]; [10],Fail (growth rating score caused by fungi of more than 2 at days 21-28 of the testing period)
same,Fungi growth rating Result,[3]; [11],Fail (growth rating score caused by fungi of more than 2 at days 21-28 of the testing period)
same,Fungi growth rating Result,[3]; [12],Fail (growth rating score caused by fungi of more than 2 at days 21-28 of the testing period)
same,Fungi growth rating Result,[3]; [13],Fail (growth rating score caused by fungi of more than 2 at days 21-28 of the testing period)
same,Fungi growth rating Result,[3]; [7],Fail (growth rating score caused by fungi of more than 2 at days 21-28 of the testing period)
same,Fungi growth rating Result,[3]; [8],Fail (growth rating score caused by fungi of more than 2 at days 21-28 of the testing period)
same,Fungi growth rating Result,[3]; [9],Pass (growth rating score caused by fungi of 2 or less at days 21-28 of the testing period)
same,Fungi growth rating Result,"[3]; lotion, pH 6.5, Example 4, dosed 0.8 wt %",Pass (growth rating score caused by fungi of 2 or less at days 21-28 of the testing period)
same,Fungi growth rating Result,"[3]; manual dishwash formulation, pH 6.5, Example 4, dosed 0.8 wt %",Fail (growth rating score caused by fungi of more than 2 at days 21-28 of the testing period)
same,Fungi growth rating Result,[3]; [14],Fail (growth rating score caused by fungi of more than 2 at days 21-28 of the testing period)
same,Fungi growth rating Result,[3]; [15],Fail (growth rating score caused by fungi of more than 2 at days 21-28 of the testing period)
same,Fungi growth rating Result,[3]; [16],Fail (growth rating score caused by fungi of more than 2 at days 21-28 of the testing period)
same,Fungi growth rating Result,[3]; [17],Fail (growth rating score caused by fungi of more than 2 at days 21-28 of the testing period)
same,Overall Result,[4]; [12],Fail
same,Overall Result,[4]; [13],Fail
same,Overall Result,[4]; [7],Fail
same,Overall Result,[4]; [8],Fail
same,Overall Result,[4]; [9],Pass
same,Overall Result,[4]; [16],Fail
same,Overall Result,[4]; [17],Fail
same,Overall Result,[5]; [10],Fail
same,Overall Result,[5]; [11],Fail
same,Overall Result,[5]; [14],Fail
same,Overall Result,[5]; [15],Fail
same,Calculated EDTA equivalent,[6]; listed as Phenoxyethanol,~0 µM
same,Calculated EDTA equivalent,[6]; listed as phenoxyethanol,~ 0 μM
